The test system of this test is Balb/c mice. Put plainly: Polypeptide chip-based vaccine immunogenicity scoring system. It counts as in vivo. On the set-up: key to A2: whether the 95 percentile of the last sampling is increased compared with the end point: Y = rise; N = no rise. To be noted: Embodiment III, polypeptide-KLH; for A1: difference between a highest median and a D 0 median (95 percentile) / A2: whether the 95 percentile of the last sampling is increased compared with the end point: Mix1-10; for Total single peptide: A*3 + B*2 + C*1; for A: 95 percentile grouping number score / B: Mouse performance score: total score = 5; for C1: #A timing-sequence response peptide fragment set / C2: #B vaccine specificity peptide fragment set / C3: Intersection of A and B / C4: Percentage of the intersection in set B / C: Timing-sequence response and specificity score: value of the whole mix. The procedure:
Data distribution and characteristics thereof are analyzed based on a) and b), a polypeptide chip-based vaccine immunogenicity scoring system (referring to Table 7) is designed.
10 combinations are evaluated by the polypeptide chip-based vaccine immunogenicity scoring system. An evaluation method is consistent with that in Embodiment II. Evaluation results are show in the table below.
This embodiment is consistent with Embodiment II. Each combination is evaluated by the polypeptide chip-based vaccine immunogenicity scoring system. Evaluation results are show in the table below.

This is an account of results in patent US20230136600A1, “Method and device for screening antigen epitope polypeptide” (priority 2020, published 2023).

On to ALDPLSETKCT (SARS-CoV-2) [SEQ ID NO:4], for which the “B1: D 0-D 14 95 percentile rise in the number of mice” value (from here on “B1: D 0-D 14 95 percentile rise”) was 2, the “B2: D 0-D 21 95 percentile rise in the number of mice” value (“B2: D 0-D 21 95 percentile rise” below) came out at 3, the “B3: D 14-D 21 95 percentile rise in the number of mice” value (shortened to “B3: D 14-D 21 95 percentile rise”) turned out to be 2 and the “B4: D 21-D 28 95 percentile rise in the number of mice” value (from here on “B4: D 21-D 28 95 percentile rise”) is 0. Also, the “A1: difference between a highest median and a D 0 median (95 percentile)” value is 0.15; the “A2: whether the 95 percentile of the last sampling is increased compared with the end point” value is on record as “N”; the Total single peptide came to 17.7; the “A: 95 percentile grouping number score” value is on record as 4.5. Moreover, the “B: Mouse performance score” value came to 1.6; the “C1: #A timing-sequence response peptide fragment set” value is given as 1494; the “C2: #B vaccine specificity peptide fragment set” value stood at 190; the “C3: Intersection of A and B” value amounted to 2. For the same sequence, the “C4: Percentage of the intersection in set B” value (“C4: Percentage” for short) is on record as 1.053; the “C: Timing-sequence response and specificity score” value is 1.
As for ALNTPKDH (SARS-CoV-2) [SEQ ID NO:19], the “B1: D 0-D 14 95 percentile rise” value stood at 3, the “B2: D 0-D 21 95 percentile rise” value stood at 3, the “B3: D 14-D 21 95 percentile rise” value is recorded as 0 and the “B4: D 21-D 28 95 percentile rise” value turned out to be 1. For the same sequence, the “A1: difference between a highest median and a D 0 median (95 percentile)” value came to 0.12; the “A2: whether the 95 percentile of the last sampling is increased compared with the end point” value is “N”; the Total single peptide is reported as 17.9; the “A: 95 percentile grouping number score” value came to 4.5. Moreover, the “B: Mouse performance score” value worked out at 1.7; the “C1: #A timing-sequence response peptide fragment set” value is reported as 288; the “C2: #B vaccine specificity peptide fragment set” value worked out at 268; the “C3: Intersection of A and B” value is 4. Besides, the “C4: Percentage” value is given as 1.493; the “C: Timing-sequence response and specificity score” value is 1.
With DNQDLNGNWY (SARS-CoV-2) [SEQ ID NO:31], the “B1: D 0-D 14 95 percentile rise” value was 2, the “B2: D 0-D 21 95 percentile rise” value is given as 3, the “B3: D 14-D 21 95 percentile rise” value worked out at 2 and the “B4: D 21-D 28 95 percentile rise” value is given as 0. Further, the “A1: difference between a highest median and a D 0 median (95 percentile)” value turned out to be 0.93; the “A2: whether the 95 percentile of the last sampling is increased compared with the end point” value is recorded as “N”; the Total single peptide is on record as 14.2; the “A: 95 percentile grouping number score” value was 3.5. For the same sequence, the “B: Mouse performance score” value was 1.6; the “C1: #A timing-sequence response peptide fragment set” value worked out at 511; the “C2: #B vaccine specificity peptide fragment set” value is 364; the “C3: Intersection of A and B” value amounted to 1. The “C4: Percentage” value is recorded as 0.275; the “C: Timing-sequence response and specificity score” value was found to be 0.5.
As to DSFKEELDKY (SARS-CoV-2) [SEQ ID NO:33], the “B1: D 0-D 14 95 percentile rise” value amounted to 3, the “B2: D 0-D 21 95 percentile rise” value is recorded as 3, the “B3: D 14-D 21 95 percentile rise” value was 1 and the “B4: D 21-D 28 95 percentile rise” value is 1. The “A1: difference between a highest median and a D 0 median (95 percentile)” value was determined as 0.13; the “A2: whether the 95 percentile of the last sampling is increased compared with the end point” value is “N”; the Total single peptide stood at 18.3; the “A: 95 percentile grouping number score” value is on record as 4.5. Also, the “B: Mouse performance score” value is 1.9; the “C1: #A timing-sequence response peptide fragment set” value came out at 288; the “C2: #B vaccine specificity peptide fragment set” value is 268; the “C3: Intersection of A and B” value was 4. Further, the “C4: Percentage” value turned out to be 1.493; the “C: Timing-sequence response and specificity score” value is on record as 1.
Consider DYNYKLPDD (SARS-CoV-2) [SEQ ID NO:11], for which the “B1: D 0-D 14 95 percentile rise” value came out at 3, the “B2: D 0-D 21 95 percentile rise” value is recorded as 3, the “B3: D 14-D 21 95 percentile rise” value was determined as 1 and the “B4: D 21-D 28 95 percentile rise” value stood at 2. Further, the “A1: difference between a highest median and a D 0 median (95 percentile)” value was determined as 0.12; the “A2: whether the 95 percentile of the last sampling is increased compared with the end point” value is listed as “Y”; the Total single peptide was 20.2; the “A: 95 percentile grouping number score” value turned out to be 5. In addition, the “B: Mouse performance score” value is reported as 2.1; the “C1: #A timing-sequence response peptide fragment set” value is recorded as 288; the “C2: #B vaccine specificity peptide fragment set” value is reported as 268; the “C3: Intersection of A and B” value amounted to 4. In addition, the “C4: Percentage” value worked out at 1.493; the “C: Timing-sequence response and specificity score” value was 1.
With ECVLGQSKR (SARS-CoV-2) [SEQ ID NO:10], the “B1: D 0-D 14 95 percentile rise” value was 3, the “B2: D 0-D 21 95 percentile rise” value stood at 3, the “B3: D 14-D 21 95 percentile rise” value was 1 and the “B4: D 21-D 28 95 percentile rise” value amounted to 0. The “A1: difference between a highest median and a D 0 median (95 percentile)” value is given as 0.11; the “A2: whether the 95 percentile of the last sampling is increased compared with the end point” value is on record as “N”; the Total single peptide amounted to 17.9; the “A: 95 percentile grouping number score” value amounted to 4.5. Moreover, the “B: Mouse performance score” value is 1.7; the “C1: #A timing-sequence response peptide fragment set” value stood at 1494; the “C2: #B vaccine specificity peptide fragment set” value was found to be 190; the “C3: Intersection of A and B” value was 2. In addition, the “C4: Percentage” value worked out at 1.053; the “C: Timing-sequence response and specificity score” value is 1.
Regarding ERSEKSYEL (SARS-CoV-2) [SEQ ID NO:28], the “B1: D 0-D 14 95 percentile rise” value is recorded as 1, the “B2: D 0-D 21 95 percentile rise” value was found to be 2, the “B3: D 14-D 21 95 percentile rise” value was 0 and the “B4: D 21-D 28 95 percentile rise” value was found to be 1. The “A1: difference between a highest median and a D 0 median (95 percentile)” value was found to be 0.11; the “A2: whether the 95 percentile of the last sampling is increased compared with the end point” value is recorded as “N”; the Total single peptide is listed as 14.3; the “A: 95 percentile grouping number score” value is reported as 4. For the same sequence, the “B: Mouse performance score” value stood at 0.9; the “C1: #A timing-sequence response peptide fragment set” value is 1212; the “C2: #B vaccine specificity peptide fragment set” value is recorded as 389; the “C3: Intersection of A and B” value was 1. Further, the “C4: Percentage” value is recorded as 0.257; the “C: Timing-sequence response and specificity score” value is recorded as 0.5.
With ETSNSFDVLKSE [SEQ ID NO:30], the “B1: D 0-D 14 95 percentile rise” value is on record as 2, the “B2: D 0-D 21 95 percentile rise” value is given as 2, the “B3: D 14-D 21 95 percentile rise” value stood at 2 and the “B4: D 21-D 28 95 percentile rise” value is 1. The “A1: difference between a highest median and a D 0 median (95 percentile)” value came to 0.02; the “A2: whether the 95 percentile of the last sampling is increased compared with the end point” value is on record as “N”; the Total single peptide turned out to be 6.7; the “A: 95 percentile grouping number score” value is 1. For the same sequence, the “B: Mouse performance score” value is on record as 1.6; the “C1: #A timing-sequence response peptide fragment set” value is given as 230; the “C2: #B vaccine specificity peptide fragment set” value was found to be 251; the “C3: Intersection of A and B” value stood at 1. In addition, the “C4: Percentage” value is 0.398; the “C: Timing-sequence response and specificity score” value is reported as 0.5.
Consider EVFAQVKQIY (SARS-CoV-2) [SEQ ID NO:13], for which the “B1: D 0-D 14 95 percentile rise” value amounted to 3, the “B2: D 0-D 21 95 percentile rise” value worked out at 3, the “B3: D 14-D 21 95 percentile rise” value is given as 0 and the “B4: D 21-D 28 95 percentile rise” value was 2. Moreover, the “A1: difference between a highest median and a D 0 median (95 percentile)” value was 0.08; the “A2: whether the 95 percentile of the last sampling is increased compared with the end point” value is recorded as “Y”; the Total single peptide came to 14.8; the “A: 95 percentile grouping number score” value is recorded as 3.5. Also, the “B: Mouse performance score” value stood at 1.9; the “C1: #A timing-sequence response peptide fragment set” value is reported as 1212; the “C2: #B vaccine specificity peptide fragment set” value is listed as 389; the “C3: Intersection of A and B” value is recorded as 1. In addition, the “C4: Percentage” value was determined as 0.257; the “C: Timing-sequence response and specificity score” value was 0.5.
As to FHPLADNKF (SARS-CoV-2) [SEQ ID NO:17], the “B1: D 0-D 14 95 percentile rise” value came to 3, the “B2: D 0-D 21 95 percentile rise” value was determined as 2, the “B3: D 14-D 21 95 percentile rise” value is given as 0 and the “B4: D 21-D 28 95 percentile rise” value was determined as 2. The “A1: difference between a highest median and a D 0 median (95 percentile)” value stood at 0.10; the “A2: whether the 95 percentile of the last sampling is increased compared with the end point” value was “Y”; the Total single peptide is 17.4; the “A: 95 percentile grouping number score” value worked out at 4.5. The “B: Mouse performance score” value was 1.7; the “C1: #A timing-sequence response peptide fragment set” value came out at 133; the “C2: #B vaccine specificity peptide fragment set” value was determined as 431; the “C3: Intersection of A and B” value is listed as 1. The “C4: Percentage” value was determined as 0.232; the “C: Timing-sequence response and specificity score” value is 0.5.
Turning to GRLQSLQTY (SARS-CoV-2) [SEQ ID NO:5], the “B1: D 0-D 14 95 percentile rise” value is given as 3, the “B2: D 0-D 21 95 percentile rise” value is 2, the “B3: D 14-D 21 95 percentile rise” value is listed as 0 and the “B4: D 21-D 28 95 percentile rise” value is 2. Besides, the “A1: difference between a highest median and a D 0 median (95 percentile)” value is recorded as 0.11; the “A2: whether the 95 percentile of the last sampling is increased compared with the end point” value is “Y”; the Total single peptide was determined as 18.9; the “A: 95 percentile grouping number score” value stood at 5. Also, the “B: Mouse performance score” value turned out to be 1.7; the “C1: #A timing-sequence response peptide fragment set” value was found to be 133; the “C2: #B vaccine specificity peptide fragment set” value was determined as 431; the “C3: Intersection of A and B” value turned out to be 1. In addition, the “C4: Percentage” value is 0.232; the “C: Timing-sequence response and specificity score” value came out at 0.5.
